This experiment deals with SVR cells. The experiment can be described thus: SVR cell assay: cell numbers counted at 48 hours, percent inhibition versus control. The experiment is classed as cell-based, murine. The conditions noted are these: for inhibition at 1 µg/mL / inhibition at 3 µg/mL / inhibition at 6 µg/mL: Mus musculus; for inhibition at 1 µg/mL: read-out: Percent Inhibition at a Specified Density (μg/ml): 1; for inhibition at 3 µg/mL: read-out: Percent Inhibition at a Specified Density (μg/ml): 3; for inhibition at 6 µg/mL: read-out: Percent Inhibition at a Specified Density (μg/ml): 6.

Where [1] appears, read: 3 μg/ml, 10,000 SVR cells in 24 well dish, counted at 48 hours.
The mark [2] stands for this setting: 6 μg/ml, 10,000 SVR cells in 24 well dish, counted at 48 hours.
Setting [3] is: 1 μg/ml, 10,000 SVR cells in 24 well dish, counted at 48 hours.

Where two headings read alike, the source gives them in different places.

Experimental: In the case of testing the anti-angiogenic/anti-cancer activity of compounds according to the present invention, an assay based on SVR cells may be employed. […] The cell numbers are counted and compared against controls. Percent inhibition is readily determined from the data obtained.
10,000 SVR cells were seeded in a 24 well dish [Arbiser, et al., J. Am. […] The cell numbers were counted at 48 hours.

For the compound “2-(2-Naphthylidene)tetralone [Compound 71]”, the “Percent Inhibition at a Specified Density (μg/ml): 3” value under setting [1] stood at 82.8%. Besides, the “Percent Inhibition at a Specified Density (μg/ml): 6” value under setting [2] was 88.7%. In addition, the “Percent Inhibition at a Specified Density (μg/ml): 9” value (9 μg/ml, 10,000 SVR cells in 24 well dish, counted at 48 hours) came to 87.1%.
In the case of `O=C(/C=C/c1ccccc1)c1ccccc1` [Compound 1, Chalcone], the inhibition at 1 µg/mL under setting [3] was determined as 71.6%. Moreover, under setting [1], the inhibition at 3 µg/mL stood at 92.8%. Moreover, under setting [2], the inhibition at 6 µg/mL amounted to 94.4%.
For `COc1ccc(/C=C/C(=O)c2ccc(OC)cc2)cc1` [Compound 2, 4,4′-Dimethoxychalcone], in that order: 29.1%, 63.4% and 85.2%.
The like results for `O=C(/C=C/c1ccccc1)/C=C/c1ccccc1` [Compound 3, 1,5-Diphenyl-1E,4E-pentadien-3-one] were, in that order, 79.3%, 96.8% and 96.8%.
For `O=C1C(=Cc2ccccc2)CCC1=Cc1ccccc1` [Compound 4, 2,5-(Dibenzylidene)cyclopentanone], under setting [3], the “Percent Inhibition at a Specified Density (μg/ml): 1” value is 19.6%. Further, under setting [1], the “Percent Inhibition at a Specified Density (μg/ml): 3” value was determined as 23.8%. Besides, the “Percent Inhibition at a Specified Density (μg/ml): 6” value under setting [2] stood at 38.6%.
Consider `CC(=O)/C=C/c1ccccc1` [Compound 5, 4-Phenyl-3E-buten-2-one], for which, where the note is “SVR, 48 h”, the inhibition at 1 µg/mL was 41.9%, the inhibition at 3 µg/mL came out at 69% and the inhibition at 6 µg/mL was determined as 64%.
With `O=C1CCCCC1=Cc1ccccc1` [Compound 7, 2-(Benzylidene)cyclohexanone], under setting [3], the inhibition at 1 µg/mL was 23%. For the same compound, the inhibition at 3 µg/mL under setting [1] is 29.5%. In addition, under setting [2], the inhibition at 6 µg/mL was found to be 72.4%.
For `O=C1C(=Cc2ccccc2)C(=O)c2ccccc21` [Compound 8, 2-(Benzylidene)-1,3-indanedione], the inhibition at 1 µg/mL under setting [3] was 91.1%. The inhibition at 3 µg/mL under setting [1] stood at 14%. Besides, under setting [2], the inhibition at 6 µg/mL turned out to be 34%.
For `CC(=O)C(=Cc1ccccc1)C(C)=O` [Compound 9, 3-Benzylidene-2,4-pentanedione], in that order: 48.3%, 72% and 82.7%.
The like results for `O=C(O)/C=C/c1ccccc1` [Compound 10, trans-Cinnamic Acid, reference compound] were, in that order, 18.6%, 14.1% and 69.6%.
For `O=C(O)C=Cc1ccc(Br)cc1` [Compound 11, para-Bromocinnamic Acid, reference compound], in that order: 18.2%, 3.5% and 0%.
Consider `CC(=O)c1cc2cc(Br)ccc2oc1=O` [Compound 12, 3-Acetyl-6-bromocoumarin, reference compound], for which the inhibition at 1 µg/mL under setting [3] stood at 20%. Moreover, the inhibition at 3 µg/mL under setting [1] is 12.7%. Also, the inhibition at 6 µg/mL under setting [2] came out at 17.4%.
Consider `CC(=O)c1cc2ccccc2oc1=O` [Compound 13, 3-Acetylcoumarin, reference compound], for which the inhibition at 1 µg/mL under setting [3] turned out to be 26%. Besides, the inhibition at 3 µg/mL under setting [1] was determined as 4.9%. Further, under setting [2], the inhibition at 6 µg/mL amounted to 13%.
Consider `O=c1cc(-c2ccccc2)oc2ccccc12` [Compound 14, Flavone, reference compound], for which, under setting [3], the inhibition at 1 µg/mL was found to be 19.3%. For the same compound, the inhibition at 3 µg/mL under setting [1] is 26.3%. In addition, under setting [2], the inhibition at 6 µg/mL is 46.7%.
For `O=c1ccoc2ccccc12` [Compound 15, Chromone, reference compound], in that order: 20.6%, 8.2% and 20.8%.
As for `N#Cc1coc2c(Cl)cc(Cl)cc2c1=O` [Compound 16, 6,8-Dichloro-3-cyanochromone, reference compound], under setting [3], the inhibition at 1 µg/mL is 15.2%. In addition, the inhibition at 3 µg/mL under setting [1] turned out to be 0%. Further, the inhibition at 6 µg/mL under setting [2] was 0%.
Take `O=C(O)Cc1ccc(C(=O)/C=C/c2ccccc2)cc1` [Compound 17, 4′-Carboxymethylchalcone]: the inhibition at 1 µg/mL under setting [3] amounted to 13.7%. For the same compound, under setting [1], the inhibition at 3 µg/mL came to 3.8%. For the same compound, the inhibition at 6 µg/mL under setting [2] amounted to 29.7%.
For `O=C(/C=C/c1ccccc1)c1cccc(C(F)(F)F)c1` [Compound 18, 3′-(Trifluoromethyl)chalcone], in that order: 42.2%, 87.4% and 96.9%.
For `O=C(/C=C/c1ccc(Cl)cc1)c1ccc(Cl)cc1` [Compound 19, 4,4′-Dichlorochalcone], under setting [3], the inhibition at 1 µg/mL came to 13.8%. The inhibition at 3 µg/mL under setting [1] came to 11.7%. In addition, the inhibition at 6 µg/mL under setting [2] amounted to 31.1%.
With `Cc1ccc(/C=C/C(=O)c2ccc(C)cc2)cc1` [Compound 20, 4,4′-Dimethylchalcone], the inhibition at 1 µg/mL under setting [3] was 36.6%. For the same compound, under setting [1], the inhibition at 3 µg/mL worked out at 67.3%. Under setting [2], the inhibition at 6 µg/mL was 89.5%.
For `Cc1ccc(C(=O)/C=C/c2ccccc2Cl)c(C)c1` [Compound 21, 2-Chloro-2′,4′-dimethylchalcone], in that order: 29.6%, 25.2% and 73.4%.
As for `Cc1ccc(C(=O)/C=C/c2ccccc2)c(C)c1` [Compound 22, 2′,4′-Dimethylchalcone], the inhibition at 1 µg/mL under setting [3] amounted to 41.7%. Further, under setting [1], the inhibition at 3 µg/mL turned out to be 80.4%. The inhibition at 6 µg/mL under setting [2] turned out to be 87.2%.
With `Cc1cccc(C)c1/C=C/C(=O)c1ccccc1` [Compound 23, 2,6-Dimethylchalcone], under setting [3], the inhibition at 1 µg/mL stood at 47.7%. Moreover, the inhibition at 3 µg/mL under setting [1] came out at 57.9%. Under setting [2], the inhibition at 6 µg/mL came to 89.6%.
For `Cc1ccc(C(=O)/C=C/c2ccc(OCc3ccccc3)cc2)cc1` [Compound 24, 4-Benzyloxy-4′-methylchalcone], the inhibition at 1 µg/mL under setting [3] was 18.4%. For the same compound, the inhibition at 3 µg/mL under setting [1] is 5.1%. Besides, the inhibition at 6 µg/mL under setting [2] was 17%.
On to `O=C(/C=C/c1ccc(OCc2ccccc2)cc1)c1ccc(Cl)cc1` [Compound 25, 4-Benzyloxy-4′-chlorochalcone], for which the inhibition at 1 µg/mL under setting [3] stood at 25.6%. The inhibition at 3 µg/mL under setting [1] stood at 4.4%. Under setting [2], the inhibition at 6 µg/mL is 62.9%.
On to `Cc1ccc(C(=O)/C=C/c2ccc(C(C)C)cc2)cc1` [Compound 26, 4-Isopropyl-4′-methylchalcone], for which, under setting [3], the inhibition at 1 µg/mL was determined as 19.5%. The inhibition at 3 µg/mL under setting [1] was found to be 14.2%. For the same compound, under setting [2], the inhibition at 6 µg/mL amounted to 59.2%.
For `Cc1ccc(C(=O)/C=C/c2ccc(Cl)cc2Cl)cc1` [Compound 27, 2,4-Dichloro-4′-methylchalcone], in that order: 19.9%, 10.4% and 84.6%.
For `Cc1ccc(C(=O)/C=C/c2c(Cl)cccc2Cl)cc1` [Compound 28, 2,6-Dichloro-4′-methylchalcone], in that order: 73.7%, 98.2% and 98.1%.
The like results for `Cc1ccc(/C=C/C(=O)c2ccc(Cl)cc2)cc1` [Compound 29, 4′-Chloro-4-methylchalcone] were, in that order, 29.9%, 40.2% and 58.5%.

Values taken from patent publication US7432303B2, “Chalcone and its analogs as agents for the inhibition of angiogenesis and related disease states” (James and Emory University, priority 1999, dated 2008).
